Laboratory results from ChEMBL document CHEMBL4304806, “Triazolo-azepine Inhibitors of γ-Secretase and Their Methods of Use” (ACS Med Chem Lett, 2019).

target: Gamma-secretase; test: Inhibition of gamma secretase in human H4 cells over expressing human APP695 harboring K595N/M596L Swedish double mutant assessed as reduction in Abeta42 production level after 24 hrs by Alphalisa assay; assay type: cell-based

Row | SMILES | IC50 [nM]
1 | Cc1cn(C23CC(Nc4nc5n(n4)CCCC[C@@H]5c4ccc(F)c(F)c4)(C2)C3)cn1 | 44
2 | Cc1cn(C23CC(Nc4nc5n(n4)CCCC[C@H]5c4cc(F)cc(Cl)c4)(C2)C3)cn1 | 14
3 | Cc1cn(C23CC(Nc4nc5n(n4)CCCC[C@@H]5c4ccc(Cl)cc4)(C2)C3)cn1 | 26
4 | Cc1cn(C23CC(Nc4nc5n(n4)CCCC[C@@H]5c4cc(F)cc(Cl)c4)(C2)C3)cn1 | 8
5 | Cc1cn(C23CCC(Nc4nc5n(n4)CCCC[C@H]5c4ccc(F)c(F)c4)(CC2)CC3)cn1 | 49
6 | Cc1cn(C23CC(Nc4nc5n(n4)CCCC[C@H]5c4ccc(F)c(F)c4)(C2)C3)cn1 | 27
7 | Cc1cn(C23CC(Nc4nc5n(n4)CCCC[C@H]5c4ccc(Cl)cc4)(C2)C3)cn1 | 23
8 | Cc1cn(C23CCC(Nc4nc5n(n4)CCCC[C@@H]5c4cc(F)cc(Cl)c4)(CC2)CC3)cn1 | 15
9 | Cc1cn(C23CC(Nc4nc5n(n4)CCCC[C@H]5c4ccc(F)cc4)(C2)C3)cn1 | 31
10 | Cc1cn(C23CC(Nc4nc5n(n4)CCCC[C@@H]5c4cccc(Cl)c4)(C2)C3)cn1 | 15
11 | Cc1cn(C23CC(Nc4nc5n(n4)CCCC[C@@H]5c4ccc(F)cc4)(C2)C3)cn1 | 25
12 | Cc1cn(C23CCC(Nc4nc5n(n4)CCCC[C@@H]5c4ccc(F)c(F)c4)(CC2)CC3)cn1 | 39
13 | Cc1cn(C23CC(Nc4nc5n(n4)CCCC[C@H]5c4cccc(Cl)c4)(C2)C3)cn1 | 16
14 | Cc1cn(C23CCC(Nc4nc5n(n4)CCCC[C@H]5c4cc(F)cc(Cl)c4)(CC2)CC3)cn1 | 14
